From BindingDB's records for doi:10.7270/Q2QR4VH9 (University of Pittsburgh, 2006)

Each compound was assayed against T1, Dual specificity protein phosphatase 1 (Homo sapiens, UniProt P28562) (assay: reproducibility of MKP-1 inhibition curves – biochemical, reproducibility testing, probe assessment, dose response (AID 563)).
T1 sequence (P28562 whole entry): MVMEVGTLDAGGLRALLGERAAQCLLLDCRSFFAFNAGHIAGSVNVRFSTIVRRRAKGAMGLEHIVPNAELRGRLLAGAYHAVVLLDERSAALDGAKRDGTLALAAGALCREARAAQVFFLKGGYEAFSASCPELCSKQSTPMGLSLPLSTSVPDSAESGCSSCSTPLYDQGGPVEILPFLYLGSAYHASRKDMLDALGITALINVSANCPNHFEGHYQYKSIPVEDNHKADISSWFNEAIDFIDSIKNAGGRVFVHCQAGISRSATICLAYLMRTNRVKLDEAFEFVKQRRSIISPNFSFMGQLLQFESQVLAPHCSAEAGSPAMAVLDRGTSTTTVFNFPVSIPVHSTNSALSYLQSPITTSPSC
With `O=C(Nc1ccc2nc(-c3ccco3)c(-c3ccco3)nc2c1)N1CCCCCC1` the IC50 was 26 µM. In the case of `CCCCCC#CCC#CCC#CCC#CCCCC(=O)O`, the IC50 is reported as 12.1 µM. Compound `Cn1ncnc2c(=O)n(C)c(=O)nc1-2` has an IC50 of 0.743 µM. `[O-]/[N+](=C\c1ccncc1)c1ccccc1` showed an IC50 greater than 50 µM. For `O=C1C=Cc2ccccc2C1=O` [1,2-dihydronaphthalene-1,2-dione], the IC50 was 36.4 µM. In the case of `Cc1nc2cc(-c3cccc(F)c3)nn2c(C)c1CCC(=O)N1CCC2(CC1)OCCO2` [1-(1,4-dioxa-8-azaspiro[4.5]decan-8-yl)-3-[2-(3-fluorophenyl)-5,7-dimethyl-6-pyrazolo[1,5-a]pyrimidinyl]-1-propanone], the IC50 is reported as greater than 50 µM. For `CCn1nc(-c2ccccc2)nc2c(=O)n(C)c(=O)nc1-2` [1-Ethyl-6-methyl-3-phenyl-1H-pyrimido[5,4-e][1,2,4]triazine-5,7-dione], the IC50 was 1.19 µM. Work on `Cc1cc(C)n2c(SCC(=O)N3CCN(S(=O)(=O)c4ccc(Cl)cc4)CC3)nnc2n1` [1-[4-(4-chlorophenyl)sulfonyl-1-piperazinyl]-2-[(5,7-dimethyl-[1,2,4]triazolo[4,3-a]pyrimidin-3-yl)thio]ethanone] yielded an IC50 of 48.8 µM. Work on `[O-]/[N+](=C\c1ccc(OC(F)F)cc1)c1ccccc1` [1-[4-(difluoromethoxy)phenyl]-N-phenylmethanimine oxide] yielded an IC50 greater than 50 µM. `CCCCn1c(SCC(=O)c2ccc(OC)cc2OC)nc2cc(S(N)(=O)=O)ccc21` [1-butyl-2-[2-(2,4-dimethoxyphenyl)-2-oxidanylidene-ethyl]sulfanyl-benzimidazole-5-sulfonamide] showed an IC50 of 45.6 µM. For `CCn1nc(-c2cccs2)nc2c(=O)n(C)c(=O)nc1-2` [1-ethyl-6-methyl-3-thiophen-2-yl-pyrimido[5,4-e][1,2,4]triazine-5,7-dione], the IC50 was 1.24 µM. In the case of `O=C(Nc1ccccc1)c1ccc2nc(-c3ccco3)c(-c3ccco3)nc2c1` [2,3-di-2-furyl-N-phenyl-6-quinoxalinecarboxamide], the IC50 is reported as 35.7 µM. For `CC(C)Cn1c(N)c(C(=O)COC(=O)c2cc(-c3ccco3)nc3ccccc23)c(=O)n(C)c1=O` [2-(2-furanyl)-4-quinolinecarboxylic acid [2-[4-amino-1-methyl-3-(2-methylpropyl)-2,6-dioxo-5-pyrimidinyl]-2-oxoethyl] ester], the IC50 was 24.2 µM. Compound `CCOc1ccc(-c2cc3nc(C4CCN(C(=O)OC(C)(C)C)CC4)c(C(=O)O)cn3n2)cc1` [2-(4-ethoxyphenyl)-5-[1-[(2-methylpropan-2-yl)oxy-oxomethyl]-4-piperidinyl]-6-pyrazolo[1,5-a]pyrimidinecarboxylic acid] has an IC50 of 30.5 µM. Compound `COc1ccc(-c2cc3nc(C4CCN(C(=O)OC(C)(C)C)CC4)c(C(=O)O)cn3n2)cc1` [2-(4-methoxyphenyl)-5-[1-[(2-methylpropan-2-yl)oxy-oxomethyl]-4-piperidinyl]-6-pyrazolo[1,5-a]pyrimidinecarboxylic acid] has an IC50 of 33.9 µM. With `Cc1cccc(NC(=O)c2cc(NC(=O)C3CCCCC3C(=O)O)ccc2N2CCCCC2)c1` (stereo not given) [2-({[3-{[(3-methylphenyl)amino]carbonyl}-4-(1-piperidinyl)phenyl]amino}carbonyl)cyclohexanecarboxylic acid] the IC50 was greater than 50 µM. With `Cc1ccc(/C=C/C2=Cc3c(sc(NC(=O)CSc4nnc(N)[nH]4)c3C#N)C(C)(C)C2)o1` [2-[(5-azanyl-1H-1,2,4-triazol-3-yl)sulfanyl]-N-[3-cyano-7,7-dimethyl-5-[(E)-2-(5-methylfuran-2-yl)ethenyl]-6H-1-benzothiophen-2-yl]ethanamide] the IC50 was 17.8 µM. Work on `CCCCNC(=O)c1c(N)n(CCCOC)c2nc3ccccc3nc12` [2-amino-N-butyl-1-(3-methoxypropyl)-3-pyrrolo[3,2-b]quinoxalinecarboxamide] yielded an IC50 of 47.1 µM. Work on `N#Cc1c(N)sc(=S)c2c1CCN(Cc1ccccc1)C2` [3-Amino-7-benzyl-1-thioxo-5,6,7,8-tetrahydro-1H-thiopyrano[3,4-c]pyridine-4-carbonitrile] yielded an IC50 of 7.34 µM. With `O=C1C=C(NCc2ccc(Cl)c(Cl)c2)CC1` [3-[(3,4-dichlorobenzyl)amino]cyclopent-2-en-1-one] the IC50 was greater than 50 µM. `CCCSc1nnc(NC(=O)c2sc3nc(-c4cccs4)ccc3c2N)s1` [3-amino-N-(5-propylsulfanyl-1,3,4-thiadiazol-2-yl)-6-thiophen-2-ylthieno[2,3-b]pyridine-2-carboxamide] gave an IC50 of 21.8 µM. `O=C1Nc2ccccc2SC(c2ccccc2)C1O` (stereo not given) [3-hydroxy-2-phenyl-2,3-dihydro-1,5-benzothiazepin-4(5H)-one] gave an IC50 of 33.2 µM. Compound `CC(C)(C)N1C(=O)Cc2c1nc(N)c1c(N)nc(N3CCCCC3CO)c(C#N)c21` (stereo not given) [5,6-bis(azanyl)-3-tert-butyl-8-[2-(hydroxymethyl)piperidin-1-yl]-2-oxidanylidene-1H-pyrrolo[2,3-c][2,7]naphthyridine-9-carbonitrile] has an IC50 greater than 50 µM. With `COc1cc(/C=C(/C#N)c2ccc(F)cc2)ccc1OCc1ccc(C(=O)O)o1` [5-({4-[2-cyano-2-(4-fluorophenyl)vinyl]-2-methoxyphenoxy}methyl)-2-furoic acid] the IC50 was greater than 50 µM. `COc1ccc(Br)cc1C=c1sc2nc(-c3ccco3)nn2c1=O` [5-[(5-bromanyl-2-methoxy-phenyl)methylidene]-2-(furan-2-yl)-[1,3]thiazolo[3,2-b][1,2,4]triazol-6-one] showed an IC50 of 12.8 µM. Work on `CCOc1cc(/C=C(/C#N)c2ccc(F)cc2)ccc1OCc1ccc(C(=O)O)o1` [5-[[4-[(E)-2-cyano-2-(4-fluorophenyl)ethenyl]-2-ethoxyphenoxy]methyl]furan-2-carboxylic acid] yielded an IC50 of 36.7 µM. Work on `N#Cc1c(NC(=O)c2ccc(Br)o2)n(-c2ccccc2)c2nc3ccccc3nc12` [5-bromanyl-N-(3-cyano-1-phenyl-pyrrolo[3,2-b]quinoxalin-2-yl)furan-2-carboxamide] yielded an IC50 of 24.4 µM. With `O=C(c1cccs1)c1no[n+]([O-])c1C(=O)c1cccs1` [(5-oxidanidyl-4-thiophen-2-ylcarbonyl-1,2,5-oxadiazol-5-ium-3-yl)-thiophen-2-yl-methanone] the IC50 was 6.39 µM. Work on `Nc1c(N2CCCC2)cc(Cl)c2nonc12` [(7-chloro-5-pyrrolidino-benzofurazan-4-yl)amine] yielded an IC50 greater than 50 µM. Work on `[O-]/[N+](=C/c1ccc(F)cc1)c1ccccc1` [(E)-(4-fluorobenzylidene)(phenyl)azane oxide] yielded an IC50 greater than 50 µM. Compound `CC1=C(/C=C/C(C)=C/C=C/C(C)=C/C(=O)O)C(C)(C)CCC1` [ALL-TRANS-RETINOIC ACID] has an IC50 of 42.9 µM. With `CC(=O)[C@@H]1[C@@H]2C(=O)N(c3ccc(F)c(Cl)c3)C(=O)[C@@H]2C2c3ccccc3C=CN21` (stereo not given in full) [MLS000040594] the IC50 was greater than 50 µM. `COCCCn1c(N)c(C(=O)NCCC(C)C)c2nc3ccccc3nc21` [MLS000041744] was tested, and the IC50 was greater than 50 µM. `CCn1c(SCC(=O)Nc2ccc3c(c2)c2ccccc2n3CC)nnc1-c1ccco1` [MLS000050867] showed an IC50 of 20.3 µM. With `O=C1C(=C2C(=O)c3ccccc3C2=O)Nc2ccccc21` [MLS000071738] the IC50 was greater than 50 µM. Compound `COc1ccc(-n2c(NC(=O)c3ccco3)c(C#N)c3nc4ccccc4nc32)cc1` [MLS000079925] has an IC50 of 34.1 µM. `COc1ccc(Cn2c(C)nc3c(c2=O)c2nc4ccccc4nc2n3Cc2ccco2)cc1` [MLS000079944] showed an IC50 of 21.6 µM. In the case of `Nc1nc2c(s1)CCc1c-2cnn1-c1ccccc1` [MLS000085948], the IC50 is reported as greater than 50 µM. For `Cc1cc(NC(=O)c2ccc(S(=O)(=O)N3CCCC3)cc2)nc2c1c(=O)oc1ccccc12` [MLS000091355], the IC50 was 24.9 µM. For `FC(F)(F)c1ccc(N2CCOCC2)c(Nc2nc3ccccc3n3cnnc23)c1` [MLS000093276], the IC50 was greater than 50 µM. With `COC(=O)c1ccccc1NC(=O)CN1C(=O)C2CCCN2c2ncc(Cl)cc21` (stereo not given) [MLS000094302] the IC50 was 46.2 µM. For `CCc1ccc(NC(=O)CSc2nc3ccccc3c(=O)n2CCN2CCOCC2)cc1` [MLS000095236], the IC50 was greater than 50 µM. `Cc1c(N=c2c(=O)c3ccccc3c2=O)c(=O)n(-c2ccccc2)n1C` [MLS000105950] showed an IC50 of 26.2 µM. `CCOc1ccc2noc3c2c1C(=O)c1ccccc1-3` [MLS000106837] was tested, and the IC50 was greater than 50 µM. `COc1ccc2noc3c2c1C(=O)c1ccccc1-3` [MLS000106874] gave an IC50 of 46.1 µM. For `O=C(NC1(O)C(=O)c2ccccc2C1=O)c1ccccc1` [N-(2-hydroxy-1,3-dioxo-2-indenyl)benzamide], the IC50 was 48.2 µM. In the case of `O=C(OC1CCCCC1)c1ccc2c(c1)C1C=CCC1C(C(=O)O)N2` (stereo not given) [SMR000019385], the IC50 is reported as 14.5 µM. `O=C1c2ccccc2-c2onc3ccc(NCCCn4ccnc4)c1c23` [SMR000044769] gave an IC50 of 27.7 µM. `CCCCn1c(NC(=O)c2ccccc2)c(C#N)c2nc3ccccc3nc21` [SMR000060333] showed an IC50 of 30 µM. Work on `N#Cc1c(N2CCCC2)nc(N)c2c(N)nc(N3CCCC3)cc12` [SMR000061605] yielded an IC50 of 18.8 µM.
